Data on 5 compounds can be found in publication PMC8309108, “Rapid and Sensitive Quantification of Intracellular Glycyl-Sarcosine for Semi-High-Throughput Screening for Inhibitors of PEPT-1” (Pharmaceutics, 2021).

In series [1] the target is PEPT-1. The note with it: read-out: reported Ki; cited from earlier work.
The target of series [2] is T1, PEPT-1 (Homo sapiens, UniProt P46059).
T1 construct: allowed to differentiate for at least 7 d to ensure sufficient PEPT-1 expression; host or cells: Caco-2
T1 sequence (P46059 1-708): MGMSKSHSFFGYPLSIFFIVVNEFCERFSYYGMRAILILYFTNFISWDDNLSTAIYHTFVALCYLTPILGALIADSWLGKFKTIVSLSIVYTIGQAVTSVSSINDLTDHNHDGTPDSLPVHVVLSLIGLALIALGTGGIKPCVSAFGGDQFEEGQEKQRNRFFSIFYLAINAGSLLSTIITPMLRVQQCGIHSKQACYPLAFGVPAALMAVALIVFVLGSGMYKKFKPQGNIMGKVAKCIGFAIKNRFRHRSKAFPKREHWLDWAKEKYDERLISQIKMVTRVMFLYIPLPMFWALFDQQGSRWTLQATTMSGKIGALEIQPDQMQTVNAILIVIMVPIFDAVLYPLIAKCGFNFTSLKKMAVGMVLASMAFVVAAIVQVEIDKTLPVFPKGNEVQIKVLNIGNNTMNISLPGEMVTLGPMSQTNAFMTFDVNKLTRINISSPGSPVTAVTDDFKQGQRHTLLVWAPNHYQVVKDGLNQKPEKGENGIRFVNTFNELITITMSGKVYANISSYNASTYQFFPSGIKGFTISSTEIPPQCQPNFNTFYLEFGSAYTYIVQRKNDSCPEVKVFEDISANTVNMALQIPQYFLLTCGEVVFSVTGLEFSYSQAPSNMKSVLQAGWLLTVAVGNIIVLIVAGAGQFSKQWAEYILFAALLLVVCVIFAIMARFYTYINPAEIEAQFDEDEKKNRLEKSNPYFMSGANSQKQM
In words: Inhibition of PEPT-1 mediated Gly-Sar uptake in Caco-2 cells (UPLC-MS/MS quantification of intracellular Gly-Sar). The note with it: for IC50: 7 d differentiation, 37 °C, pH = 6.0, three independent experiments; for Ki: converted from IC50 with the IC50-to-Ki tool, assuming competitive inhibition and a Km of 860 µM for Gly-Sar, read-out: calculated Ki. Type of series: cell-based. As to the method: Caco-2 cells were cultivated in DMEM supplemented with 10% FBS, glutamine (2 mM), penicillin (100 U/mL), streptomycin (100 µg/mL), and 1% NEAS. They were kept at 37 °C and 5% CO2 and passaged once a week. For validation and uptake experiments, cells were seeded in 96-well plates at a density of 6.25 × 10^4 cells/cm^2 and allowed to differentiate for at least 7 d to ensure sufficient PEPT-1 expression. The uptake buffer (MES) was prepared as previously described by Sun et al. and contained 50 mM MES, 136.9 mM NaCl, 5.4 mM KCl, 1.26 mM CaCl2, 0.81 mM MgSO4 × 7 H2O, 0.5 mM Na2HPO4, 0.44 mM KH2PO4, 0.42 mM NaHCO3, and 5.54 mM glucose. The pH value of the uptake buffer was adjusted to pH = 6.0 using either HCl or NaOH solutions. Gly-Sar uptake was tested after 7, 24, and 28 d of Caco-2 cell differentiation. […] After an incubation period of 10 min at 37 °C under gentle agitation, transport was terminated by removing the solution and washing the cells with ice-cold MES buffer (100 µL/well) thrice while the plate was kept on ice. Afterwards, cells were lysed in the 96-well cell culture plate with aqueous NH4OH (10%, 50 µL/well) and sample preparation was performed as described below.
Sample preparation was performed directly in the 96-well cell culture plates. Cell lysates (50 µL) were spiked with 25 µL IS spike solution and, depending on the sample type, with either 5 µL of the respective calibration or QC solution (calibration and QC samples) or with 5 µL H2O/ACN (95/5, v/v) + 0.1% FA for volume compensation (study samples). Subsequently, all samples were filled with 180 µL ACN + 0.1% FA for protein precipitation and centrifuged for 10 min at 800 g. Finally, the 96-well plates were transferred into the Sample Manager for direct injection onto the UPLC-MS/MS system.
The quantification of Gly-Sar in cell homogenates was performed on a UPLC-MS/MS system consisting of a triple-stage quadrupole mass spectrometer (Waters Xevo TQ-XS with Z-spray ESI source) and an Acquity Classic UPLC® (Waters, Milford, MA, USA). Chromatographic separation was achieved on a Waters Cortecs UPLC® HILIC column (90 Å, 1.6 µm, 2.1 × 50 mm) heated to 60 °C with the injection volume set to 10 µL and a flow rate of 0.4 mL/min. The mobile phase consisted of H2O/ACN (95/5, v/v) + 0.1% FA (aqueous eluent; A) and ACN + 0.1% FA (ACN eluent; B). Gly-Sar was eluted with an isocratic composition of 16% A/84% B for 3 min. Subsequently, the conditions were changed to 50% A/50% B within 0.5 min and maintained for 0.5 min to flush the column. Afterwards, the initial ratio of 16% A and 84% B was restored during 0.5 min. The mass spectrometer was operated using an electrospray ionization (ESI) source in the positive ion detection mode. Quantification of Gly-Sar and IS was performed by selected reaction monitoring (SRM) using argon collision gas for collision-induced dissociation (CID). Mass spectrometric parameters were optimized for the detection of Gly-Sar and the IS using the auto-optimization feature IntelliStart of the MassLynx V4.2 system software (Waters, Milford, MA, USA).
Calibration curves were fitted by the Waters TargetLynx V4.2 software (Waters, Milford, MA, USA) using 1/x^2-weighted linear regressions of the peak area ratios of Gly-Sar and the IS. General calculations were performed using Microsoft Excel 2010 ([…]). IC50 values (i.e., the inhibitor concentration, which causes a baseline-normalized half-maximal Gly-Sar uptake) were calculated using the GraphPad Prism 9 software (version 9.1.0; GraphPad Software Inc., La Jolla, CA, USA). Intracellular Gly-Sar concentrations at varying inhibitor concentrations were fitted with nonlinear regression to a four-parameter concentration–response curve (4PL) according to the equation: […]

Series [3] deals with T1, PEPT-1. On the set-up: method as in PMID 22490229. The following applies: cited from earlier work.
Series [4] in a line: Stability of Gly-Sar in processed cell lysate and spike solutions. In kind it is physicochemical. On the procedure:
The assay to quantify Gly-Sar in cell homogenates was validated following the EMA and FDA guidelines on bioanalytical method validation. For this purpose, the linearity, accuracy, precision, selectivity, stability, recovery, and matrix effect of the assay were determined in three validation batches, which included eight calibration samples in duplicates and 24 QC samples at four concentrations (LLOQ, low, mid, and high QC) in sixfold determination. Accuracy (%) is the degree of agreement between the determined value and known true value and was subsequently determined by dividing the quantified mean concentration by the nominal concentration. Precision (% CV) describes the degree of agreement between individual measurements of the same analyte and was calculated by dividing the standard deviation by the quantified mean of the measurements. Chromatograms of blank cell lysate samples from six different cell passage numbers and of corresponding spiked samples were assessed for interfering signals at the retention time of Gly-Sar and IS to determine the selectivity of the method. […] Recovery was evaluated for low, mid, and high QC concentration of Gly-Sar by the comparison of peak areas of QC samples spiked after extraction with the respective peak areas of […] spiked after extraction. […] Gly-Sar integrity was further evaluated in the spike solutions. […]

The mark [5] stands for this setting: Caco-2 cells, 20 µM Gly-Sar, 10 min.

“Also recorded” adds a separate entry of the source. Non-standard residues stand in square brackets, D forms with d. Residues, ends and D or L forms follow the SMILES beside them. Sar = CNCC(=O)O

Turning to `NCC(=O)N1CCC[C@H]1C(=O)O` [Gly-Pro, glycyl-proline] (H-Gly-Pro-OH), the Ki is 300 µM in series [1] and 250 µM in series [2]. In addition, in series [2] (setting [5]), half-maximal inhibition (IC50) required 257 ± 28 µM.
`CN(CC(=O)O)C(=O)CN` [Gly-Sar, glycyl-sarcosine] (H-Gly-[Sar]-OH): the Km in series [3] is 860 µM. The “fraction of Gly-Sar uptake that is PEPT-1 mediated” value in series [2] (Caco-2 cells, 10 min incubation) was “around 86%”. For the same compound, the “ratio of bottom to top of the fitted sigmoidal curves (non-inhibited, non-PEPT-1 specific Gly-Sar uptake)” value in series [2] (mean over all measured IC50 determinations, Caco-2 cells) is given as 14.0 ± 6.7%. Further, in series [4] (samples stored in the autosampler, over 24 h), the “deviation of peak areas from the initial values” is listed as under 15%. Moreover, the “time stable in spike solutions” value in series [4] (spike solutions in H2O/ACN (95/5, v/v) + 0.1% FA) is recorded as “at least 9 months”.
For `Nc1nc2c(ncn2COCCO)c(=O)[nH]1` [aciclovir], the “inhibition of Gly-Sar uptake (in words)” value in series [2] (Caco-2 cells, 20 µM Gly-Sar, 10 min, pH = 6.0, 0.1–5000 µM inhibitor) is on record as “no inhibition; also recorded: did not interfere with Gly-Sar uptake; also recorded: did no inhibit the Gly-Sar uptake”.
As to `CCCCc1nc(Cl)c(CO)n1Cc1ccc(-c2ccccc2-c2nn[nH]n2)cc1` [losartan], the Ki in series [1] is 24 µM; in series [2], 44 µM. The compound further had an IC50 in series [2] (setting [5]) of 45.1 ± 15.8 µM.
For the compound `CC(C)[C@H](N)C(=O)OCCOCn1cnc2c(=O)[nH]c(N)nc21` [valaciclovir], the Ki is 740 µM in series [1] and 874 µM in series [2]. This compound also gave an IC50 in series [2] (setting [5]) of 894 ± 309 µM.
